Where a name gives a salt, the structure may show the parent alone.

These results are taken from US9975903B2, “Condensed heterocyclic compound” (Takeda Pharmaceutical Company Limited, priority 2014, dated 2018).

The target of the first experiment is T1, Human recombinant enteropeptidase (Homo sapiens, UniProt P98073).
T1 construct: purchased ITSI-Biosciences LLC #REN-260
T1 sequence (P98073 whole entry): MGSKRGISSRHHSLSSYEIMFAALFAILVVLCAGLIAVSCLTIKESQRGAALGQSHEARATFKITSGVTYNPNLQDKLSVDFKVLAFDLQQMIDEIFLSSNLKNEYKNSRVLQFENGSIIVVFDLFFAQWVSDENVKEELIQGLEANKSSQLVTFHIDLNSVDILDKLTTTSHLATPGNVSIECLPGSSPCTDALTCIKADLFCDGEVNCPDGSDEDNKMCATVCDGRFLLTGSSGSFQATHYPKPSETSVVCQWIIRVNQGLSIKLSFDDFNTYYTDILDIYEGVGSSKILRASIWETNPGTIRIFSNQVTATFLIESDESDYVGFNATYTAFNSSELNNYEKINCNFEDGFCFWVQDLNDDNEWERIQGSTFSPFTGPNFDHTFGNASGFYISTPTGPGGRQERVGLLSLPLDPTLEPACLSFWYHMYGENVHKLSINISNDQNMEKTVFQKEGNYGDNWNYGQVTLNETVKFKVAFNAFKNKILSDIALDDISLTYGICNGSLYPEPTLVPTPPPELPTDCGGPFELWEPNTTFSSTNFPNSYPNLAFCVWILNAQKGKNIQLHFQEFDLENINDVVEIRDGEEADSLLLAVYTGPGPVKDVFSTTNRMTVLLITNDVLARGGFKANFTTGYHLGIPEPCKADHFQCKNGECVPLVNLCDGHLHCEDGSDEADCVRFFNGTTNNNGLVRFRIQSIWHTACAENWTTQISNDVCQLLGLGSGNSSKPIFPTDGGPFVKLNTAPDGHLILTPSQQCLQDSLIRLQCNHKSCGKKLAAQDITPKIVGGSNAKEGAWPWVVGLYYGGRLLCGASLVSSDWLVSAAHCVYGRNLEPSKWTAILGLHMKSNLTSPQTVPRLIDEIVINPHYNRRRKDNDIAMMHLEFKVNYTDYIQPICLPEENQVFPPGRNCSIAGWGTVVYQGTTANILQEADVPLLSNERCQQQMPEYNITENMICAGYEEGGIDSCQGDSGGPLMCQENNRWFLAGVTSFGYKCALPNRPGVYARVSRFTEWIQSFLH
As to the kind of experiment: Human enteropeptidase inhibitory activity (Test Example 1). It counts as biochemical. Conditions: 3.3 μM test compound; inhibition rate from fluorescence intensity at 2 hours after the start of the reaction. The procedure: Human recombinant enteropeptidase (#REN-260, ITSI-Biosciences LLC) was diluted with an assay buffer (50 mM Tricine, pH 8.0, 0.01 (w/v) %, Tween 20, 10 mM CaCl2) to prepare a 24 mU/mL enzyme solution. Subsequently, 5FAM-Abu-Gly-Asp-Asp-Asp-Lys-Ile-Val-Gly-Gly-Lys(CPQ2)-Lys-Lys-NH2 (SEQ ID NO: 1, purity: 97.2%, CPC Scientific Inc.) was diluted with the assay buffer to prepare a 2.1 μM substrate solution. A test compound is dissolved in DMSO into a 1 mM solution, and the solution was diluted by 100-fold with the assay buffer to give a compound solution. To a 384-well black plate (#784076, Greiner Bio-One), 5 μL of the compound solution and 5 μL of the substrate solution were added and mixed, and 5 μL of the enzyme solution was then added to the mixture, followed by mixing to start the reaction. The fluorescence intensity was measured with a fluorescence plate reader EnVision (The Perkin-Elmer Corp.) at an excitation wavelength of 485 nm and a fluorescence wavelength of 535 nm. The same reaction as above except that the test compound was not contained was performed (test compound non-addition group). Furthermore, the same reaction as above except that the test compound and the enzyme were not contained was performed (control group). The inhibition rate was calculated using the fluorescence intensity at 2 hours after the start of the reaction by the following expression: Inhibition rate (%)=(1−((fluorescence intensity of test compound addition group)−(fluorescence intensity of control group))/((fluorescence intensity of test compound non-addition group)−(fluorescence intensity of control group)))×100
For the molecule `N=C(N)Nc1ccc2c(c1)OCCCOc1cc(CCC(=O)N[C@@H](CC(=O)O)C(=O)O)ccc1OC2=O` [Example 51, N-(3-(3-carbamimidamido-15-oxo-7,8-dihydro-6H,15H-dibenzo[b,f][1,4,8]trioxacyclo-undecin-11-yl)propanoyl) aspartic acid], the “3.3 μM Inhibition” value is 101%.

Still in this experiment, the particulars now being: 3.3 μM test compound; inhibition rate from fluorescence intensity at 2 hours after the start of the reaction; read-out: 3.3 μM Inhibition.
For the molecule `N=C(N)Nc1ccc2c(c1)CCCOc1c(cccc1C(=O)O)OC2=O` [Example 29, 10-carbamimidamido-13-oxo-6,7,8,13-tetrahydro-dibenzo[b,f] [1,4]dioxecine-4-carboxylic acid], the inhibition at 3.3 µM worked out at 101%.

Take `N=C(N)Nc1ccc2c(c1)CCCc1c(cccc1C(=O)N[C@@H](CC(=O)O)C(=O)O)OC2=O` [Example 30, N-((9-Carbamimidamido-6-oxo-6,11,12,13-tetrahydrodibenzo[b,g]oxonin-1-yl)carbonyl)-L-aspartic acid trifluoroacetate]: the inhibition at 3.3 µM worked out at 101%.

In the case of `N=C(N)Nc1ccc2c(c1)CCCCc1c(OCC(=O)N[C@@H](CC(=O)O)C(=O)O)cccc1OC2=O` [Example 31, N-(((3-carbamimidamido-14-oxo-5,7,8,14-tetrahydro-6H-dibenzo[b,h]oxecin-9-yl)oxy)acetyl)-L-aspartic acid], the inhibition at 3.3 µM is 101%.

In the case of `N=C(N)Nc1ccc2c(c1)CCCCc1c(CC(=O)N[C@@H](CC(=O)O)C(=O)O)cccc1OC2=O` [Example 32, N-((3-carbamimidamido-14-oxo-5,7,8,14-tetrahydro-6H-dibenzo[b,h]oxecin-9-yl)acetyl)-L-aspartic acid], the inhibition at 3.3 µM was 71%.

Regarding `N=C(N)Nc1ccc2c(c1)CCCCc1c(cccc1C(=O)NCCS(=O)(=O)O)OC2=O` [Example 33, 2-(((3-carbamimidamido-14-oxo-5,7,8,14-tetrahydro-6H-dibenzo[b,h]oxecin-9-yl)carbonyl)amino) ethanesulfonic acid], the inhibition at 3.3 µM was 98%.

For the molecule `N=C(N)Nc1ccc2c(c1)CCCCc1c(cccc1C(=O)O)OC2=O` [Example 34, 3-carbamimidamido-14-oxo-6,7,8,14-tetrahydro-6H-dibenzo[b, h]oxecine-9-carboxylic acid], the inhibition at 3.3 µM is 75%.

Regarding `N=C(N)Nc1ccc2c(c1)CCCCc1cc3c(cc1OC2=O)OC[C@H]3CC(=O)NCCS(=O)(=O)O` [Example 35, 2-((((10S)-3-carbamimidamido-15-oxo-5,7,8,10,11,15-hexahydro-6H-12,14-dioxabenzo[5,6]cyclodeca[1,2-f]inden-10-yl)acetyl)amino)ethane-sulfonic acid], the inhibition at 3.3 µM is 90%.

Turning to `N=C(N)Nc1ccc2c(c1)CCCCc1c(cc3c(c1C(=O)NCCS(=O)(=O)O)CCO3)OC2=O` [Example 36, 2-(((3-carbamimidamido-15-oxo-5,7,8,10,11,15-hexahydro-6H-12,14-dioxabenzo[5,6]cyclodeca[1,2-f]inden-9-yl)carbonyl)amino)ethane-sulfonic acid], the inhibition at 3.3 µM is 94%.

Consider `N=C(N)Nc1ccc2c(c1)CCCCc1c(cccc1C(=O)N[C@@H](CC(=O)O)C(=O)O)OC2=O` [Example 37, N-((3-Carbamimidamido-14-oxo-5,7,8,14-tetrahydro-6H-dibenzo[b,h]oxecin-9-yl)carbonyl)-L-aspartic acid], for which the inhibition at 3.3 µM was 101%.

On to `N=C(N)Nc1ccc2c(c1)CCCCc1cc3c(cc1OC2=O)OC[C@H]3CC(=O)N[C@@H](CC(=O)O)C(=O)O` [Example 39, N-(((10S)-3-carbamimidamido-15-oxo-5,7,8,10,11,15-hexahydro-6H-12, 14-dioxabenzo[5,6]cyclodeca[1,2-f]inden-10-yl)acetyl)-L-aspartic acid], for which the inhibition at 3.3 µM amounted to 98%.

Regarding `N=C(N)Nc1ccc2c(c1)CCCCc1c(cc3c(c1C(=O)N[C@@H](CC(=O)O)C(=O)O)CCO3)OC2=O` [Example 40, N-((3-Carbamimidamido-15-oxo-5,7,8,10,11,15-hexahydro-6H-12,14-dioxabenzo[5,6]cyclodeca[1,2-f]inden-9-yl)carbonyl)-L-aspartic acid], the inhibition at 3.3 µM stood at 100%.

For the molecule `N=C(N)Nc1ccc2c(c1)CCCCc1c(CCC(=O)N[C@@H](CC(=O)O)C(=O)O)ccc(F)c1OC2=O` [Example 41, N-(3-(3-carbamimidamido-12-fluoro-14-oxo-5,7,8,14-tetrahydro-6H-dibenzo[b,h]oxacin-9-yl)propanoyl)-L-aspartic acid], the inhibition at 3.3 µM was found to be 71%.

Consider `N=C(N)Nc1ccc2c(c1)OCCCCOc1c(CCC(=O)N[C@@H](CC(=O)O)C(=O)O)cccc1OC2=O` [Example 42, N-(3-(3-Carbamimidamido-16-oxo-6,7,8,9-tetrahydro-16H-dibenzo[b,f][1,4,8]trioxacyclododecin-11-yl)propanoyl)aspartic acid trifluoroacetate], for which the inhibition at 3.3 µM was 100%.

As for `N=C(N)Nc1ccc2c(c1)OCCCOc1c(CCC(=O)N[C@@H](CC(=O)O)C(=O)O)cccc1OC2=O` [Example 43, N-(3-(3-Carbamimidamido-15-oxo-7,8-dihydro-6H, 15H-dibenzo[b,f][1,4,8]trioxacycloundecin-10-yl)propanoyl)aspartic acid trifluoroacetate], the inhibition at 3.3 µM was found to be 101%.

Regarding `N=C(N)Nc1ccc2c(c1)CCCCOc1c(CCC(=O)N[C@@H](CC(=O)O)C(=O)O)cccc1OC2=O` [Example 44, N-(3-(11-Carbamimidamido-14-oxo-7,8,9,14-tetrahydro-6H-dibenzo[b,f][1,4]dioxacycloundecin-4-yl)propanoyl)-L-aspartic acid trifluoroacetate], the inhibition at 3.3 µM turned out to be 96%.

Take `N=C(N)Nc1ccc2c(c1)OCCCCOc1cc(CCC(=O)NC(CC(=O)O)C(=O)O)ccc1OC2=O` (centres unmarked) [Example 46, N-(3-(3-carbamimidamido-16-oxo-6,7,8,9-tetrahydro-16H-dibenzo[b,f][1,4,8]trioxacyclo-dodecin-12-yl)propanoyl) aspartic acid]: the inhibition at 3.3 µM was determined as 100%.

For `N=C(N)Nc1ccc2c(c1)CCCOc1c(CCC(=O)N[C@@H](CC(=O)O)C(=O)O)cccc1OC2=O` [Example 47, N-(3-(10-Carbamimidamido-13-oxo-6,7,8,13-tetrahydrodibenzo[b,f][1,4]dioxecin-4-yl)propanoyl)aspartic acid], the inhibition at 3.3 µM is 101%.

On to `N=C(N)Nc1ccc2c(c1)CCc1nc(CCC(=O)N[C@@H](CC(=O)O)C(=O)O)ccc1OC2=O` [Example 48, N-(3-(9-Carbamimidamido-6-oxo-11,12-dihydro-6H-[2]benzoxocino[4,3-b]pyridin-2-yl)propanoyl)-L-aspartic acid trifluoroacetate], for which the inhibition at 3.3 µM amounted to 42%.

Turning to `N=C(N)Nc1ccc2c(c1)CCCOc1cc(CCC(=O)N[C@@H](CC(=O)O)C(=O)O)ccc1OC2=O` [Example 49, N-(3-(10-carbamimidamido-13-oxo-6,7,8,13-tetrahydro-dibenzo[b,f] [1,4]dioxecin-3-yl)propanoyl)-aspartic acid], the inhibition at 3.3 µM turned out to be 100%.

As for `N=C(N)Nc1ccc2c(c1)OCCc1cc(CCC(=O)N[C@@H](CC(=O)O)C(=O)O)ccc1OC2=O` [Example 50, N-(3-(9-Carbamimidamido-6-oxo-12,13-dihydro-6H-dibenzo[b,f][1,5]dioxonin-2-yl)propanoyl)-L-aspartic acid trifluoroacetate], the inhibition at 3.3 µM was 101%.

Take `N=C(N)Nc1ccc2c(c1)OCCOc1c(CCC(=O)N[C@@H](CC(=O)O)C(=O)O)cccc1OC2=O` [Example 52, N-(3-(3-Carbamimidamido-14-oxo-6,7-dihydro-14H-dibenzo[b,h][1,4,7]trioxecin-9-yl)propanoyl)aspartic acid trifluoroacetate]: the inhibition at 3.3 µM was determined as 101%.

Regarding `N=C(N)Nc1ccc2c(c1)OCCOc1cc(CCC(=O)N[C@@H](CC(=O)O)C(=O)O)ccc1OC2=O` [Example 53, N-(3-(3-carbamimidamido-14-oxo-6,7-dihydro-14H-dibenzo[b,h][1,4,7]trioxecin-10-yl)propanoyl) aspartic acid], the inhibition at 3.3 µM is 101%.

Turning to `N=C(N)Nc1ccc2c(c1)CCc1cccc(CCC(=O)N[C@@H](CC(=O)O)C(=O)O)c1OC2=O` [Example 54, N-(3-(9-carbamimidamido-6-oxo-11,12-dihydro-6H-dibenzo[b,f]oxocin-4-yl)propanoyl)-L-aspartic acid], the inhibition at 3.3 µM was determined as 89%.

As for `N=C(N)Nc1ccc2c(c1)CCc1ccc(CCC(=O)N[C@@H](CC(=O)O)C(=O)O)cc1OC2=O` [Example 55, N-(3-(9-carbamimidamido-6-oxo-11,12-dihydro-6H-dibenzo[b,f]oxocin-3-yl)propanoyl)-L-aspartic acid], the inhibition at 3.3 µM was determined as 98%.

For `N=C(N)Nc1ccc2c(c1)CCc1cc(CCC(=O)N[C@@H](CC(=O)O)C(=O)O)ccc1OC2=O` [Example 56, N-(3-(9-carbamimidamido-6-oxo-11,12-dihydro-6H-dibenzo[b,f]oxocin-2-yl)propanoyl)-L-aspartic acid], the inhibition at 3.3 µM was found to be 100%.
